Laboratory results as given in ChEMBL document CHEMBL1909046, “DrugMatrix in vitro pharmacology data”.

Experiments:
[1] = DRUGMATRIX: Calcium Channel Type L, Dihydropyridine radioligand binding (ligand: [3H] Nitrendipine); type: cell membranes, Rattus norvegicus, Wistar, Cerebral cortex, Membrane; conditions: Not Active = under 50% inhibition at 10 µM
D(1A) dopamine receptor = D(1A) dopamine receptor (Homo sapiens, UniProt P21728); experiment: DRUGMATRIX: Dopamine D1 radioligand binding (ligand: [3H] SCH-23390); type: cell membranes, CHO, Membrane; conditions: cho; Not Active = under 50% inhibition at 10 µM
Thromboxane-A synthase = target: T1, Thromboxane-A synthase (Homo sapiens, UniProt P24557); experiment: biochemical; type: tissue-based, Platelet;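 also: enzyme inhibition assay with PGH2 supplied as substrate; in other assays of this panel Not Active means under 50% inhibition at 10 µM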
T1 sequence (P24557 whole entry): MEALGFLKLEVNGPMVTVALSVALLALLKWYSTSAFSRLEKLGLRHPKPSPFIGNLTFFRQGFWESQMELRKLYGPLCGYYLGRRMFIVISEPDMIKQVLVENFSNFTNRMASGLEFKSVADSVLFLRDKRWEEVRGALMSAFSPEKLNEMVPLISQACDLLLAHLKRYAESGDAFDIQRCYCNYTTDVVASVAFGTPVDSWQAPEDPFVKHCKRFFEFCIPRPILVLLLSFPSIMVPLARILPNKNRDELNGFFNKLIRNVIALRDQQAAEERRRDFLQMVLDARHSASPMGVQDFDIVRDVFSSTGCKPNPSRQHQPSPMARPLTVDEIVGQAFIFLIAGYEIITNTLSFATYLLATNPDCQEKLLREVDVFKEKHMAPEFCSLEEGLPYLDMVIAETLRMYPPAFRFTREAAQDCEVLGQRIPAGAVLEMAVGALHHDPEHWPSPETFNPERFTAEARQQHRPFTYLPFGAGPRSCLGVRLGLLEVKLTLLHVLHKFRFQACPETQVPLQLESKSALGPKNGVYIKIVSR

[2] = DRUGMATRIX: Platelet-Derived Growth Factor (PDGF) radioligand binding (ligand: [125I] PDGF); type: cell-based; conditions: nih3t3; Not Active = under 50% inhibition at 10 µM
[3] = target: T2, Cholecystokinin receptor type A (Homo sapiens, UniProt P32238); type: cell membranes, Membrane; conditions: 1321-n1; also: in other assays of this panel Not Active means under 50% inhibition at 10 µM
T2 sequence (P32238 whole entry): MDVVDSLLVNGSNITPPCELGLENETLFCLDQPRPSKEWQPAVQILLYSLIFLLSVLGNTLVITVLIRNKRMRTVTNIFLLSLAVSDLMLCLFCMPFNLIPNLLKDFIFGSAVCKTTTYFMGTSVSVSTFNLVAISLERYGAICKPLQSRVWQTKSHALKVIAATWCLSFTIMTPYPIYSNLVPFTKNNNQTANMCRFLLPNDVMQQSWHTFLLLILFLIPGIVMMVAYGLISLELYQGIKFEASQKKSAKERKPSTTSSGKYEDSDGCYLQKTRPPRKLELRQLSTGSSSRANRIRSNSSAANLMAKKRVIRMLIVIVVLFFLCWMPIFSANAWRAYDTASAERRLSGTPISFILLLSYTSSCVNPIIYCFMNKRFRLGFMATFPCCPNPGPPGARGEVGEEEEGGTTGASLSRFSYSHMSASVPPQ

[4] = DRUGMATRIX: Purinergic P2X radioligand binding (ligand: [3H] alpha, beta-Methylene-ATP); type: cell membranes, Oryctolagus cuniculus, New Zealand albino, Urinary bladder, Membrane; conditions: Not Active = under 50% inhibition at 10 µM
Progesterone receptor = target: T3, Progesterone receptor (Bos taurus, UniProt Q690N0); experiment: DRUGMATRIX: Progesterone radioligand binding (ligand: [3H] R-5020); type: tissue-based, Uterus; conditions: Not Active = under 50% inhibition at 10 µM
T3 sequence (Q690N0 whole entry): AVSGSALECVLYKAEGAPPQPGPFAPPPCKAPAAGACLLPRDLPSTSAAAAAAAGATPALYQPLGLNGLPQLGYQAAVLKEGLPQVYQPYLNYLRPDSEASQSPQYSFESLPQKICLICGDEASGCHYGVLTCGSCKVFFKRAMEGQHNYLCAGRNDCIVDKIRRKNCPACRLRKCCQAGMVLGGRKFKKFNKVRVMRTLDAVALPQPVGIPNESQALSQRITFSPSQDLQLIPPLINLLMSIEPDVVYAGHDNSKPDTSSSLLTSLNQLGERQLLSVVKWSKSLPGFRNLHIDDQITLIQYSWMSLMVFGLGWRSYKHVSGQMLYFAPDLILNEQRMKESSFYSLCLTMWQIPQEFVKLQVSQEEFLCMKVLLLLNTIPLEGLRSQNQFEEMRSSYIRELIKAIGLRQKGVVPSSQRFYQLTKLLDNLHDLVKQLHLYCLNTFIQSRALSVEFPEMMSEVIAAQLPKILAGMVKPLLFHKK

Chain of D(1A) dopamine receptor (P21728 whole entry): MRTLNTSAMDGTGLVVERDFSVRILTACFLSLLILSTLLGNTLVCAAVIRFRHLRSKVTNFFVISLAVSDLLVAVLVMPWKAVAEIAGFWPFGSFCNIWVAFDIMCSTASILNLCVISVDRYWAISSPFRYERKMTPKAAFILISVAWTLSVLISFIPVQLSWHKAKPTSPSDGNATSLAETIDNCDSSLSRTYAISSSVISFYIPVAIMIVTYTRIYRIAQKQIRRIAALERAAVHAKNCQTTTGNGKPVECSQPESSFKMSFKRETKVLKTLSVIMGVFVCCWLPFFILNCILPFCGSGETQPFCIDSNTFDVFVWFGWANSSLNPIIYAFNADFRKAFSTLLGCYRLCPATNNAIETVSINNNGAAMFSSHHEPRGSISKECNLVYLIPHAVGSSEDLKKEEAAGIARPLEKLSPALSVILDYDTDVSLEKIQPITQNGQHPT

Row | Molecule | IC50 [1] | Ki [1] | IC50 (D(1A) dopamine receptor) | Ki (D(1A) dopamine receptor) | IC50 (Thromboxane-A synthase; platelet) | Ki (Thromboxane-A synthase; platelet) | IC50 [2] | Ki [2] | IC50 [3] | Ki [3] | IC50 [4] | Ki [4] | IC50 (Progesterone receptor) | Ki (Progesterone receptor) | IC50 (Thromboxane-A synthase; read-out: IC50)
1 | STANNOUS FLUORIDE | Not Active | Not Active | Not Active | Not Active | Not Active | Not Active | Not Active | Not Active | Not Active | Not Active | Not Active | Not Active | Not Active | Not Active | –
2 | C[C@@H](O)[C@H]1C(=O)N2C(C(=O)O)=C(S[C@@H]3CN[C@H](C(=O)N(C)C)C3)[C@H](C)[C@H]12 [MEROPENEM] | Not Active | Not Active | Not Active | – | Not Active | – | Not Active | Not Active | Not Active | – | Not Active | Not Active | Not Active | – | –
3 | COc1ncnc(NS(=O)(=O)c2ccc(N)cc2)c1OC [SULFADOXINE] | Not Active | Not Active | Not Active | – | Not Active | – | Not Active | Not Active | Not Active | – | Not Active | Not Active | Not Active | – | –
4 | CCCc1nn(C)c2c(=O)[nH]c(-c3cc(S(=O)(=O)N4CCN(C)CC4)ccc3OCC)nc12 | Not Active | Not Active | Not Active | – | Not Active | – | Not Active | Not Active | Not Active | – | Not Active | Not Active | Not Active | – | –
5 | COc1ccc(/C=C/C(=O)Nc2ccccc2C(=O)O)cc1OC | Not Active | Not Active | Not Active | – | Not Active | – | Not Active | Not Active | Not Active | – | Not Active | Not Active | Not Active | – | –
6 | CC1=C(CC(=O)O)c2cc(F)ccc2/C1=C\c1ccc(S(C)(=O)=O)cc1 [EXISULIND] | Not Active | Not Active | Not Active | – | Not Active | – | Not Active | Not Active | Not Active | – | Not Active | Not Active | Not Active | – | –
7 | CN1C2CCCC1CC(NC(=O)c1nn(C)c3ccccc13)C2 (stereo not drawn) [GRANISETRON] | – | – | – | – | Not Active | – | – | – | Not Active | – | – | – | Not Active | – | –
8 | Cc1cn([C@H]2C[C@H](N=[N+]=[N-])[C@@H](CO)O2)c(=O)[nH]c1=O [ZIDOVUDINE] | Not Active | Not Active | Not Active | – | Not Active | – | Not Active | Not Active | Not Active | – | Not Active | Not Active | Not Active | – | –
9 | OCCN1CCN(CCCN2c3ccccc3Sc3ccc(C(F)(F)F)cc32)CC1 [FLUPHENAZINE] | – | – | – | – | Not Active | – | – | – | Not Active | – | – | – | Not Active | – | –
10 | CC(C)(C)NC[C@H](O)COc1nsnc1N1CCOCC1 [TIMOLOL] | Not Active | Not Active | Not Active | – | Not Active | – | Not Active | Not Active | Not Active | – | Not Active | Not Active | Not Active | – | –
11 | Nc1nc2c(c(=O)[nH]1)N(C=O)C(CNc1ccc(C(=O)N[C@@H](CCC(=O)O)C(=O)O)cc1)CN2 (stereo partly drawn) [LEUCOVORIN] | Not Active | Not Active | Not Active | – | Not Active | – | Not Active | Not Active | Not Active | – | Not Active | Not Active | Not Active | – | –
12 | O=c1n(CCCN2CCN(c3cccc(Cl)c3)CC2)nc2ccccn12 [TRAZODONE] | – | – | – | – | Not Active | – | – | – | Not Active | – | – | – | Not Active | – | –
13 | COc1cc(C(=O)NS(=O)(=O)c2ccccc2C)ccc1Cc1cn(C)c2ccc(NC(=O)OC3CCCC3)cc12 [ZAFIRLUKAST] | Not Active | Not Active | Not Active | – | – | – | Not Active | Not Active | Not Active | – | Not Active | Not Active | Not Active | – | 3.81 µM
14 | CCOC(N)=O | Not Active | Not Active | Not Active | – | Not Active | – | Not Active | Not Active | Not Active | – | Not Active | Not Active | Not Active | – | –
15 | CN(CCOc1ccc(CC2SC(=O)NC2=O)cc1)c1ccccn1 (stereo not drawn) [ROSIGLITAZONE] | Not Active | Not Active | Not Active | – | – | – | Not Active | Not Active | Not Active | – | Not Active | Not Active | Not Active | – | 3.56 µM
16 | CC(=O)O[C@H]1C[C@@H]2CC[C@@H]3[C@H](CC[C@@]4(C)[C@H]3C[C@H]([N+]3(C)CCCCC3)[C@@H]4OC(C)=O)[C@@]2(C)C[C@@H]1N1CCCCC1.[Br-] [VECURONIUM BROMIDE] | Not Active | Not Active | Not Active | – | Not Active | – | Not Active | Not Active | Not Active | – | Not Active | Not Active | Not Active | – | –
17 | Nc1ccc(S(=O)(=O)Nc2ncccn2)cc1 [SULFADIAZINE] | Not Active | Not Active | Not Active | – | Not Active | – | Not Active | Not Active | Not Active | – | Not Active | Not Active | Not Active | – | –
18 | CCS(=O)(=O)CCn1c([N+](=O)[O-])cnc1C [TINIDAZOLE] | Not Active | Not Active | Not Active | – | Not Active | – | Not Active | Not Active | Not Active | – | Not Active | Not Active | Not Active | – | –
19 | Nc1ccc(S(=O)(=O)Nc2nccs2)cc1 [SULFATHIAZOLE] | Not Active | Not Active | Not Active | – | Not Active | – | Not Active | Not Active | Not Active | – | Not Active | Not Active | Not Active | – | –
20 | O=C(O)C(Cl)(Cl)Cl [TRICHLOROACETIC ACID] | Not Active | Not Active | Not Active | – | Not Active | – | Not Active | Not Active | Not Active | – | Not Active | Not Active | Not Active | – | –
21 | C=C(C)[C@H]1Cc2c(ccc3c2O[C@@H]2COc4cc(OC)c(OC)cc4[C@@H]2C3=O)O1 [ROTENONE] | Not Active | Not Active | Not Active | – | Not Active | – | Not Active | Not Active | Not Active | – | Not Active | Not Active | Not Active | – | –
22 | CC(C)OC(=O)C(C)(C)Oc1ccc(C(=O)c2ccc(Cl)cc2)cc1 [FENOFIBRATE] | – | – | – | – | Not Active | – | – | – | Not Active | – | – | – | Not Active | – | –
23 | CCN(CC)CC#CCOC(=O)C(O)(c1ccccc1)C1CCCCC1 (stereo not drawn) [OXYBUTYNIN] | – | – | – | – | Not Active | – | – | – | Not Active | – | – | – | Not Active | – | –
24 | CC(=O)Nc1nnc(S(N)(=O)=O)s1 [ACETAZOLAMIDE] | – | – | – | – | Not Active | – | – | – | Not Active | – | – | – | Not Active | – | –
25 | CC[C@@H](CO)NC(=O)[C@@H]1C=C2c3cccc4c3c(cn4C)C[C@H]2N(C)C1 [METHYSERGIDE] | – | – | – | – | Not Active | – | – | – | Not Active | – | – | – | Not Active | – | –
26 | O=c1[nH]c2ccccc2n1CCCN1CCC(n2c(=O)[nH]c3cc(Cl)ccc32)CC1 [DOMPERIDONE] | – | – | – | – | Not Active | – | – | – | Not Active | – | – | – | Not Active | – | –
